Measurements taken from the NIST ThermoML archive (doi:10.1021/je1000796).
Numbers after ± are expanded uncertainties.

What was measured:
[1] = 101 kPa, Liquid; for viscosity: Capillary tube (Ostwald / Ubbelohde) method
[2] = mn = molality of the nth substance listed, in mol/kg; conditions: 101 kPa, Liquid, m2 = 0; for viscosity: Capillary tube (Ostwald / Ubbelohde) method

Compound | mass density ([1]; 278.15 K) [kg/m3] | viscosity ([1]; 278.15 K) [mPa·s] | mass density ([1]; 283.15 K) [kg/m3] | viscosity ([1]; 283.15 K) [mPa·s] | mass density ([1]; 288.15 K) [kg/m3] | viscosity ([1]; 288.15 K) [mPa·s] | mass density ([1]; 293.15 K) [kg/m3] | viscosity ([1]; 293.15 K) [mPa·s] | mass density ([1]; 298.15 K) [kg/m3] | viscosity ([1]; 298.15 K) [mPa·s] | mass density ([1]; 303.15 K) [kg/m3] | viscosity ([1]; 303.15 K) [mPa·s] | mass density ([1]; 308.15 K) [kg/m3] | viscosity ([1]; 308.15 K) [mPa·s] | mass density ([1]; 313.15 K) [kg/m3] | viscosity ([1]; 313.15 K) [mPa·s] | viscosity ([2]; 278.15 K) [mPa·s] | mass density ([2]; 278.15 K) [kg/m3] | viscosity ([2]; 283.15 K) [mPa·s] | mass density ([2]; 283.15 K) [kg/m3] | other results
CCO [ethanol] | 800.5 ± 1 | 1.629 ± 0.014 | 797.8 ± 1 | 1.474 ± 0.013 | 793.9 ± 0.8 | 1.333 ± 0.011 | 790 ± 0.9 | 1.21 ± 0.01 | 785.7 ± 0.9 | 1.099 ± 0.0094 | 780.9 ± 0.9 | 0.9971 ± 0.0086 | 778 ± 1.2 | 0.9083 ± 0.0079 | 773.3 ± 1 | 0.828 ± 0.0072 | – | – | – | – | –
CO [methanol] | 803 ± 0.9 | 0.7418 ± 0.0065 | 798.9 ± 0.8 | 0.689 ± 0.0061 | 795.2 ± 0.8 | 0.641 ± 0.0057 | 792.1 ± 0.9 | 0.599 ± 0.0054 | 787.9 ± 0.8 | 0.5585 ± 0.005 | 783.7 ± 0.8 | 0.5199 ± 0.0047 | 779.5 ± 0.9 | 0.4857 ± 0.0044 | 775.2 ± 0.9 | 0.4559 ± 0.0042 | – | – | – | – | –
CO [methanol] + COC(=O)[C@H](c1ccccc1Cl)N1CCc2sccc2C1.O=S(=O)(O)O | – | – | – | – | – | – | – | – | – | – | – | – | – | – | – | – | 0.7418 ± 0.0065 | 803 ± 0.9 | 0.689 ± 0.0061 | 798.9 ± 0.8 | viscosity ([2]; 288.15 K): 0.641 ± 0.0057 mPa·s; mass density ([2]; 288.15 K): 795.2 ± 0.8 kg/m3; viscosity ([2]; 293.15 K): 0.599 ± 0.0054 mPa·s; mass density ([2]; 293.15 K): 792.1 ± 0.9 kg/m3; viscosity ([2]; 298.15 K): 0.5585 ± 0.005 mPa·s; mass density ([2]; 298.15 K): 787.9 ± 0.8 kg/m3; viscosity ([2]; 303.15 K): 0.5199 ± 0.0047 mPa·s; mass density ([2]; 303.15 K): 783.7 ± 0.8 kg/m3; viscosity ([2]; 308.15 K): 0.4857 ± 0.0044 mPa·s; mass density ([2]; 308.15 K): 779.5 ± 0.9 kg/m3; viscosity ([2]; 313.15 K): 0.4559 ± 0.0042 mPa·s; mass density ([2]; 313.15 K): 775.2 ± 0.9 kg/m3
CCO [ethanol] + COC(=O)[C@H](c1ccccc1Cl)N1CCc2sccc2C1.O=S(=O)(O)O | – | – | – | – | – | – | – | – | – | – | – | – | – | – | – | – | 1.629 ± 0.014 | 800.5 ± 1 | 1.474 ± 0.013 | 797.8 ± 1 | viscosity ([2]; 288.15 K): 1.333 ± 0.011 mPa·s; mass density ([2]; 288.15 K): 793.9 ± 0.8 kg/m3; viscosity ([2]; 293.15 K): 1.21 ± 0.01 mPa·s; mass density ([2]; 293.15 K): 790 ± 0.9 kg/m3; viscosity ([2]; 298.15 K): 1.099 ± 0.0094 mPa·s; mass density ([2]; 298.15 K): 785.7 ± 0.9 kg/m3; viscosity ([2]; 303.15 K): 0.9971 ± 0.0086 mPa·s; mass density ([2]; 303.15 K): 780.9 ± 0.9 kg/m3; viscosity ([2]; 308.15 K): 0.9083 ± 0.0079 mPa·s; mass density ([2]; 308.15 K): 778 ± 1.2 kg/m3; viscosity ([2]; 313.15 K): 0.828 ± 0.0072 mPa·s; mass density ([2]; 313.15 K): 773.3 ± 1 kg/m3
